# Assay results as given in patent US12447191B2, “Topical application of polypeptide in the treatment of skin damage” (WUHAN YICHENG BIOTECHNOLOGY CO., LTD., priority 2020, dated 2025).
# No end group written: not given here.
# How the values were obtained:
# [1] = tested on: deep II degree burn (scald wound); test: Animal Experiment 1: rat scald (deep II degree burn) model; format: in vivo, SD rats; conditions: after 14 days of treatment; smeared twice a day on scald wound; other side untreated control
# Procedure: The following will verify the therapeutic function of the medicament prepared in embodiments 1 to 3 on trauma and burns through experiments. The pharmacodynamic effects of polypeptide drugs were evaluated by establishing a rat burn model or a rat trauma model. Experimental Purpose: to study the therapeutic effect of polypeptide drug of the invention on scald. Experimental Animals: SD rats, half male and half female, 200 g±10 g. The Modeling Scheme: the rats' back were depilated with 10% barium sulfide the day before the experiment, and anesthetized by intraperitoneal injection before scalding. The rat models were made with a constant temperature and pressure scald apparatus. After scalding, 5 ml lactate Ringer's solution was intraperitoneally injected immediately to prevent shock. The criteria for successful modeling: disappearance of local epidermis; expansion of blood vessels in epidermis, dermis and subcutaneous tissue; edema of subcutaneous tissue; infiltration of acute and chronic inflammatory cells in dermis and subcutaneous tissue; the above description is a deep II degree burn. Animal Grouping: 8 SD rats in total Ointment Group (Ointment prepared in embodiment 2): 4 rats, half male and half female, scalded on both sides of the body. After scalding, one side was administered, and the other side was used as control. […]
# [2] = tested on: HaCAT cells; test: Cell Differentiation Experiment; format: cell-based, human; conditions: 10 μL polypeptide (10 mg/ml), 48 h
# Procedure: 1. Cell Resuscitation: • (1) HaCAT cells (human immortalized epidermal cells, purchased from Wuhan University Cell Preservation Center, GDC106) are taken out of liquid nitrogen, quickly put into a 37° C. water bath, and gently shake the cryopreservation tube to dissolve the cryopreservation solution;
# (2) After dissolution, the HaCAT cells were transferred to a centrifuge tube containing 5 ml of culture medium. The cells were collected by centrifugation, centrifuged at 1000 rmp at room temperature for 5 min, and the supernatant was discarded;
# (3) The HaCAT cells were suspended in a complete medium containing 10% fetal bovine serum, inoculated into a culture dish, gently blown and mixed, and cultured at 37° C. and 5% CO2 saturated humidity.
# When the cell density reaches 80%, the HaCAT cells will be subcultured:
# (1) Discard the culture medium and wash it once with PBS;
# (2) Add 1-2 ml 0.25% trypsin to digest the cells. Observe under the microscope. Digest for 1-2 min. It can be seen that the cells are separated from each other and become round, that is, the digestion is completed;
# (3) Quickly discard the trypsin, add the complete culture medium, blow the cells to make a single cell suspension, pass the passage in a ratio of 1:3, and expand the culture under 37° C. and 5% CO2 saturated humidity. […]
sequence,measurement,setting,value
MPYSTELIFYIEMDP [polypeptide],Photo observation of wound healing,[1],can obviously promote the wound healing
same,Differentiation of HaCAT cells (morphology on photos),[2],some cells are differentiated
